Measured values: patent US20230339882A1, “SHP2 INHIBITOR AND COMPOSITION AND APPLICATION THEREOF” (Betta Pharmaceuticals Co., Ltd., priority 2020, published 2023)
Read-outs that look alike come from different tables or passages of the source.

Experiments:
leukemia cells MV-4-11 = test: Cell proliferation assay, CELL TITER-GLO (CTG) luminescence, MV-4-11; format: cell-based
Procedure, shortened: (§1)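 NCI-H358 (2000 cells/well, ultra-low-attachment plates) and MV-4-11 cells were dosed 24 h after seeding at 1000 nM down to 0.1524 nM (3-fold steps). Viable-cell ATP was read by CellTiter-Glo luminescence after 96 h for NCI-H358 and 120 h for MV-4-11. IC50 came from a variable-slope fit of inhibition versus the 0 nM control.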

[1] = tested on: lung cancer cells NCI-H358; test: Cell proliferation assay, CELL TITER-GLO (CTG) luminescence, NCI-H358; format: cell-based; settings: cultured for 96 hrs
Procedure, shortened: as §1

[2] = In vitro metabolic stability in liver microsomes, rat; format: in vitro ADME; settings: for microsomal CLint at 2 µM: pH 7.3, read-out: CLint (µL/min/mg protein) rat
Experimental: (§2) Example D: In Vitro Metabolic Stability of Human and Rat Liver Microsomes Test Buffer Preparation
(§3) Dissolve 1900 mg of MgCl2 in 400 mL of ultrapure water.
(§4) Dissolve 17.42 g K2HPO4 and 13.65 g KH2PO4 into 1000 mL of ultrapure water, respectively. Mix a certain proportion of K2HPO4 and KH2PO4 to adjust the pH to 7.30 ± 0.10.
(§5) Prepare a solution of 10 ng/mL labetalol and 10 ng/mL glyburide in acetonitrile and store at 4° C.
(§6) Prepare 10 mM verapamil (positive control) and test article stock solutions in DMSO. Then, with MeOH/ACN/H2O solution (1:1:2 by volume), diluted to 50 µM and 200 µM working solutions, respectively.
(§7) experiment procedure: • 1) Add 40 µL MgCl2 and 306 µL PBS to 96 wells (set blank control group, positive control group, test compound sample group, and negative control group at the same time) • 2) Add 4 µL of compound working solution to each well (4 µL of PBS buffer for blank group) (Note: the final concentration of DMSO volume in the system is ≤ 0.5%) • 3) Add 10 µL of liver microsomes (concentration: 20 mg/mL) to each well, mix well, and pre-incubate at 37° C. for 10 minutes. • 4) Add 40 µL of 10 mM NADPH working solution to each well to start the reaction (add equal volume of PBS buffer for blank control group and negative control group respectively), the total reaction volume is 400 µL. • 5) Take out 50 µL samples from the above reaction solution at 0, 5, 15, and 45 minutes, and add 400 µL of reaction stop solution to stop the reaction • 6) Shake the sample after the termination of the reaction on a shaker for 5 minutes. • 7) Centrifuge the sample at 3200 rcf for 10 minutes. After the centrifugation is complete, transfer 50 µL of the supernatant to 200 µL of H2O for dilution for LC-MS/MS analysis.
(§8) Calculations of t½ and CLint are performed using the first-order kinetic equations: […]
(§9) where k represents the elimination constant, calculated from a log-linear plot of percentage remaining versus time. t½ represents half-life. Cprotein is the concentration of liver microsomes.

hERG potassium channel [3] = biological target: T1, hERG potassium channel (Homo sapiens (Human), UniProt Q12809); test: Patch clamp experiments on the hERG ion channel (HEK293 cells overexpressing hERG)
T1 sequence (Q12809 whole entry): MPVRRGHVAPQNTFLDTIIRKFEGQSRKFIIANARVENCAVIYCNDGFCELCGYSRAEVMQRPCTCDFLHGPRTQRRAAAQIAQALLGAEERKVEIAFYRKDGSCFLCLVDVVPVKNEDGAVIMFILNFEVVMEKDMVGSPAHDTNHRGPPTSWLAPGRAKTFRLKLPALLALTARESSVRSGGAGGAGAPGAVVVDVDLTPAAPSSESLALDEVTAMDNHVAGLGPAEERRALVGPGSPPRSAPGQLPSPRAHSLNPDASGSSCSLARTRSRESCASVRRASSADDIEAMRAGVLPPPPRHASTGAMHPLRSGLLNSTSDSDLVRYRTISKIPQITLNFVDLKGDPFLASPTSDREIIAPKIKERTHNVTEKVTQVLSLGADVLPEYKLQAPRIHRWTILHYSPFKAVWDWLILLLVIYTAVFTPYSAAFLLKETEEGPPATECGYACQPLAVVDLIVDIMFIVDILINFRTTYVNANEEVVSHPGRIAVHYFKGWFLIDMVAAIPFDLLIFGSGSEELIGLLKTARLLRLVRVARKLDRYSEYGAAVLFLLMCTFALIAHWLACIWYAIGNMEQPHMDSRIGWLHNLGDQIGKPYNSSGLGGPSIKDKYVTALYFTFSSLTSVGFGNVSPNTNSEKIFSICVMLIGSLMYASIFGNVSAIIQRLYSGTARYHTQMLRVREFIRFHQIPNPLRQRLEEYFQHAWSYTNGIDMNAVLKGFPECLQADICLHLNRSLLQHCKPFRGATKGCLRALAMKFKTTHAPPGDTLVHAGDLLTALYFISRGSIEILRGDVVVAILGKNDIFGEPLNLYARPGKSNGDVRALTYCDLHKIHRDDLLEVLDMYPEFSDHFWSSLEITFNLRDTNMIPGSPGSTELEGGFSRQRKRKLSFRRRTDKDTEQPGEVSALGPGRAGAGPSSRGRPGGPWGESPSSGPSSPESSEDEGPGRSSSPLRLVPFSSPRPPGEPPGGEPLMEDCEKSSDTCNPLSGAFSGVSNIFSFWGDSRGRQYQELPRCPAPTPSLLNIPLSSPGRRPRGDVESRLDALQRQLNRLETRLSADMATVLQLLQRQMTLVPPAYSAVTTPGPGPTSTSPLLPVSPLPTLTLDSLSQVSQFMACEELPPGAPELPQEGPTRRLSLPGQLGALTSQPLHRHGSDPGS
Experimental: (§10) Example C Patch Clamp Experiments to Assess the Effects of Compounds on the hERG Ion Channel
(§11) Dilute the test sample diluent in sequence with extracellular fluid to prepare detection solutions with final concentrations of 0.3 µM, 1 µM, 3 µM, 10 µM and 30 µM. The solubility of the samples to be tested was visually checked.
(§12) The cell line was derived from HEK293 cells and cultured in a 37° C., 5% CO2 incubator. In order to prevent cell senescence caused by contact inhibition, when the cell culture confluence should not exceed 80%, the cells should be passaged every ¾ days, and the inoculation density of each T175 flask should be 2*106 cells. Pre-wash with Phosphate Buffered Saline (PBS), then trypsin/EDTA for 2-3 minutes, stop digestion by adding cell culture medium, and transfer to a new culture bottle.
(§13) HEK293 cells overexpressing the hERG potassium channel were cultured overnight at a cell density below 50%. Experimental cells were transferred to a cell bath embedded in an inverted microscope stage(Diaphot, Nikon) and perfused with extracellular fluid. The extracellular fluid contained 130 mM NaCl, 4 mM KCl, 1.8 mM CaCl2, 1 mM MgCl2, 10 mM glucose and 10 mM HEPES (pH 7.4 with NaOH) at a perfusion rate of 4 ml/min. The inner tube contains 130 mM KCl, 1 mM MgCl2, 5 mM EGTA, 5 mM MgATP and 10 mM HEPES (pH 7.2 with KOH). Membrane currents were recorded using a HEKA EPC-10 patch-clamp amplifier and [sequence] acquisition system (HEKA Instruments Inc., D-67466 Lambrecht, Pfalz, Germany). All experiments were done at room temperature (22-23° C.).
(§14) Electrodes (BF150-86-10) were straightened during the experiments using a P-97 microelectrode puller (Sutter Instrument Company, One Digital Drive, Novato, CA 94949). The inner diameter of the electrode is 1-1.5 mm, and the water entry resistance after filling with internal liquid is 2-4 MΩ.
(§15) When the whole-cell seal is formed, wait for the current to stabilize for 2 minutes (the current decay is less than 5% within 5 minutes, and the tail current value is greater than500 pA). At this time, the peak value of the tail current is the control current value. The extracellular fluid containing the drug to be tested is then perfused. The same procedure was repeated 3-5 times, exposing each cell to 4-6 increasing concentrations of compounds. Blocking and deactivation of hERG during compound exposure and washout were continuously recorded.
(§16) When the whole-cell seal was formed, the cell membrane voltage was clamped at -80 mV, depolarized for 2 seconds every 12 seconds, and the clamping voltage was depolarized from -80 mV to -50 mV under a 5-second repolarization pulse of -50 mV. Measure the peak tail current.
(§17) Peak hERG tail currents were measured under a 5 s repolarization pulse of -50 mV. Each drug concentration was plotted against the current inhibition rate as a function of the logarithm of the compound concentration. The following Hill equation was used to fit a concentration-response curve to fit IC50.
(§18) Y: test value; Bottom: the lowest test value (0); Top: the highest test value (1); Hillcoefficient: the maximum absolute value of the slope of the curve.
(§19) Data are presented as mean ± standard deviation.

SHP2 [4] = biological target: T2, SHP2 (Homo sapiens (Human), UniProt Q06124); test: SHP2 allosteric inhibitory enzyme activity assay (DiFMUP fluorescence); format: biochemical; settings: read-out: SHP2 enzymatic activity IC50
T2 sequence (Q06124 whole entry): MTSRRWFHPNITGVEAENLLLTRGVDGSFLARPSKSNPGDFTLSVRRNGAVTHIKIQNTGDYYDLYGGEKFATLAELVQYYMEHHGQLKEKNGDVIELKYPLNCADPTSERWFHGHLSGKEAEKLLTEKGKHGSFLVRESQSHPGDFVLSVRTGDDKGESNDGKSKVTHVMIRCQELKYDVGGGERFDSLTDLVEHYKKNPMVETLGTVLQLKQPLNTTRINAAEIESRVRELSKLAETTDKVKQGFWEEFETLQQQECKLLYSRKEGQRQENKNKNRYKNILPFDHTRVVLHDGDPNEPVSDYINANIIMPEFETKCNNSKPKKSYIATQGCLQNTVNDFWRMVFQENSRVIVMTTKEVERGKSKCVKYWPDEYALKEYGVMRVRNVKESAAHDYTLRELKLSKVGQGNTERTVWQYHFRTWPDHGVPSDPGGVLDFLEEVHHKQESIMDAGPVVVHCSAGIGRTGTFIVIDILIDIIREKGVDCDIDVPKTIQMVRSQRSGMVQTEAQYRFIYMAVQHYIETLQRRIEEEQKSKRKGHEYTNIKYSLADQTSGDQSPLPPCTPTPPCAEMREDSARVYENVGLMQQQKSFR
Procedure, shortened: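 Human SHP2 (0.2 ng) preincubated 1 h at room temperature with 25 µM activating peptide IRS1_pY1172(dPEG8)pY1222 and compound (10-point series from 10 µM) in HEPES/NaCl/KCl/BRIJ-35/EDTA/DTT buffer. DiFMUP then added for 1 h; fluorescence at ex 340/em 450 nm, normalized to no-enzyme and no-inhibitor controls, IC50 from variable-slope fit.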

[5] = In vitro metabolic stability in liver microsomes, human; format: in vitro ADME; settings: for microsomal CLint at 2 µM: pH 7.3, read-out: CLint (µL/min/mg protein) human
Experimental: as §2, §3, §4, §5, §6, §7, §8, §9

[6] = In vitro metabolic stability in liver microsomes, monkey; format: in vitro ADME; settings: for microsomal CLint at 2 µM: pH 7.3, read-out: CLint (µL/min/mg protein) monkey
[7] = In vitro metabolic stability in liver microsomes, mouse; format: in vitro ADME; settings: for microsomal CLint at 2 µM: pH 7.3, read-out: CLint (µL/min/mg protein) mouse
[8] = In vitro metabolic stability in liver microsomes, dog; format: in vitro ADME; settings: for microsomal CLint at 2 µM: pH 7.3
SHP2 [9] = biological target: T2, SHP2; settings: according to WO2019183367, cited from earlier work
hERG potassium channel [10] = biological target: T1, hERG potassium channel
Experimental: as §10, §11, §12, §13, §14, §15, §16, §17, §18, §19

[11] = read-out: hERG, patch clamp, peak tail current, HEK293
[12] = Homo sapiens, MV4-11, cultured for 120 hrs
[13] = Homo sapiens, NCI-H358, ultra-low adsorption plate

Structure (SMILES) | IC50 (leukemia cells MV-4-11; cultured for 120 hrs) [nM] | IC50 ([1]; ultra-low adsorption plate) [nM] | CLint (µL/min/mg protein) rat [2] [µL/min/mg protein] | IC50 (SHP2 [4]) [nM] | CLint (µL/min/mg protein) human [5] [µL/min/mg protein] | CLint (µL/min/mg protein) monkey [6] [µL/min/mg protein] | CLint (µL/min/mg protein) mouse [7] [µL/min/mg protein] | CLint (µL/min/mg protein) dog ([8]; dog liver microsomes) [µL/min/mg protein] | also measured
N[C@@H]1c2ccccc2CC12CCN(c1ncc(C#CCOc3ccc(S(N)(=O)=O)cc3)nc1CO)CC2 [Compound A32, (S)-4-((3-(5-(1-amino-1,3-dihydrospiro[indene-2,4′-piperidin]-1′-yl)-6-(hydroxymethy 1)pyrazin-2-yl)prop-2-yn-1-yl)oxy)benzenesulfonamide] | 3.4 | 9 | 14.7 | 1.3 | 2.2 | 10.1 | 10.6 | 1.9 | IC50 (hERG potassium channel [3]; [11]): > 20 µM
N[C@@H]1c2ccccc2CC12CCN(c1ncc(C#CCOc3ccncc3)nc1CO)CC2 [Compound A18, (S) - (3-(1-amino-1,3-dihydrospiro [indene-2,4′-piperidine]-1′-yl)-6-(3-(pyridin-4-oxy)prop-1-yn-1-yl)pyrazin-2-yl) methanol] | – | – | – | 35 | – | – | – | – | IC50 (hERG potassium channel [3]): > 20 µM
NC(=O)Cc1ccc(OCC#Cc2cnc(N3CCC4(CC3)Cc3ccccc3[C@H]4N)c(CO)n2)cc1 [Compound A71, (S)-2-(4-((3-(5-(1-amino-1,3-dihydrospiro[indene-2,4′-piperidin]-1′-yl)-6-(hydroxylmethyl)pyrazin-2-yl)prop-2-yn-1-yl)oxy)phenyl)ace tamide] | – | – | – | 2.9 | – | – | – | – | IC50 (leukemia cells MV-4-11; [12]): 2.3 nM; IC50 [1, 13]: 4.3 nM; IC50 (hERG potassium channel [3]): > 20 µM
NC(=O)Cc1cccc(OCC#Cc2cnc(N3CCC4(CC3)Cc3ccccc3[C@H]4N)c(CO)n2)c1 [Compound A59, (S)-2-(3-((3-(5-(1-amino-1,3-dihydrospiro[indene-2,4′-piperidin]-1′-yl)-6-(hydroxymethyl)pyrazin-2-yl)prop-2-yn-1-yl)oxy)phenyl)acetamide] | – | – | – | 1.1 | – | – | – | – | IC50 (leukemia cells MV-4-11; [12]): 1 nM; IC50 [1, 13]: 5.8 nM; microsomal CLint at 2 µM [2]: 16.2 µL/min/mg; IC50 (hERG potassium channel [3]): 26 µM; microsomal CLint at 2 µM [5]: 10.7 µL/min/mg; microsomal CLint at 2 µM [6]: 15.9 µL/min/mg; microsomal CLint at 2 µM [7]: 16.8 µL/min/mg; microsomal CLint at 2 µM ([8]; dog, microsomes): 14.9 µL/min/mg
CP(C)(=O)c1ccc(OCC#Cc2cnc(N3CCC4(CC3)Cc3ccccc3[C@H]4N)c(CO)n2)cc1 [Compound A57] | 10 | 22 | – | 4.3 | – | – | – | – | IC50 (hERG potassium channel [3]; [11]): > 20 µM
N[C@@H]1c2ccccc2CC12CCN(c1ncc(C#CCOc3ccc4c(c3)NC(=O)CC4)nc1CO)CC2 [Compound A22] | 2.9 | 2.3 | 20.7 | 4.6 | 1.6 | 21.0 | 13.2 | 13.6 | –
N[C@@H]1c2ccccc2CC12CCN(c1ncc(C#CCNC(=O)c3ccccc3)nc1CO)CC2 [Compound A45] | 20 | 40 | 7.9 | 4.7 | 5.2 | 3.2 | 6.3 | 9.6 | –
NC(=O)c1ccc(OCC#Cc2cnc(N3CCC4(CC3)Cc3ccccc3[C@H]4N)c(CO)n2)cc1 [Compound A17, (S)-4-((3-(5-(1-amino-1,3-dihydrospiro[indene-2,4′-piperidine]-1′-yl)-6-(hydroxymethyl)pyrazin-2-yl)prop-2-yn-1-yl)oxy) benzamide] | 1 | 1.5 | 15.9 | 2.4 | 0.4 | 5.0 | 12.0 | 10.6 | –
NC(=O)c1ccc(OCC#Cc2cnc(N3CCC4(CC3)Cc3ccccc3[C@H]4N)c(CO)n2)cc1F [Compound A50, (S)-4-((3-(5-(1-amino-1,3-dihydrospiro[indene-2,4′-piperidin]-1′-yl)-6-(hydroxymethy 1)pyrazin-2-yl)prop-2-yn-1-yl)oxy)-2-fluorobenzamide] | 2.2 | 3.3 | 11.4 | 1.7 | 7.4 | 5.9 | 3.1 | – | CLint (µL/min/mg protein) dog ([8]; dog, microsomes): 5.2 µL/min/mg protein
CC(=O)Nc1cccc(OCC#Cc2cnc(N3CCC4(CC3)Cc3ccccc3[C@H]4N)c(C(N)=O)n2)c1 [Compound A41] | – | – | – | 14 | – | – | – | – | IC50 (hERG potassium channel [3]; [11]): > 20 µM
N[C@@H]1c2ccccc2CC12CCN(c1ncc(Sc3ccnc(Cl)c3Cl)nc1CO)CC2 [compound 243] | – | – | – | – | – | – | – | – | IC50 (SHP2 [9]; read-out: IC50 in the SHP2 allosteric inhibition test (lower bound)): > 50 nM; IC50 (SHP2 [9]; read-out: IC50 in the SHP2 allosteric inhibition test (upper bound)): ≤ 1000 nM
N[C@@H]1c2ccccc2CC12CCN(c1ncc(C#CCOc3cccc(C(F)(F)F)c3)nc1CO)CC2 [Compound A13] | 18 | 28 | 2.4 | 5.8 | 6.3 | 2.6 | 6.6 | 0.9 | –
NC(=O)c1cccc(OCC#Cc2cnc(N3CCC4(CC3)Cc3ccccc3[C@H]4N)c(CO)n2)c1 [Compound A27, (S)-3-((3-(5-(1-amino-1,3-dihydrospiro[indene-2,4′-piperidine]-1′-yl)-6-(hydroxymethyl)pyrazin-2-yl)prop-2-yn-1-yl)oxy)benzamide] | – | – | – | 1.9 | – | – | – | – | IC50 (leukemia cells MV-4-11; [12]): 1.4 nM; IC50 [1, 13]: 1.5 nM; microsomal CLint at 2 µM [2]: 7.5 µL/min/mg; microsomal CLint at 2 µM [5]: 4 µL/min/mg; microsomal CLint at 2 µM [6]: 15.9 µL/min/mg; microsomal CLint at 2 µM [7]: 17.7 µL/min/mg; microsomal CLint at 2 µM ([8]; dog, microsomes): 4.8 µL/min/mg
NC(=O)c1ccc(NCC#Cc2cnc(N3CCC4(CC3)Cc3ccccc3[C@H]4N)c(CO)n2)cc1 [Compound A48, (S)-4-((3-(5-(1-amino-1,3-dihydrospiro[indene-2,4′-piperidin]-1′-yl)-6-(hydroxymethy 1)pyrazin-2-yl)prop-2-yn-1-yl)amino)benzamide] | 1.7 | 12 | 15.8 | 2 | 7.3 | 8.6 | 15.2 | – | IC50 (hERG potassium channel [10]): > 20 µM; CLint (µL/min/mg protein) dog ([8]; dog, microsomes): 26.3 µL/min/mg protein
